These results are taken from PMC9817974, “Pharmacokinetic Basis for Using Saliva Matrine Concentrations as a Clinical Compliance Monitoring in Antitumor B Chemoprevention Trials in Humans” (Cancers, 2022).

The Km is the substrate concentration at which the rate is half of its maximum.

Data set [1] is described as follows: Stability of ATB tablets (ICH storage conditions). To be noted: for remaining percentage in ATB tablets, Long term 3 months / remaining percentage in ATB tablets, Long term 6 months / remaining percentage in ATB tablets, Long term 12 months: 25 ± 2 °C/60 ± 5% RH.
Description: Two independent batches of ATB tablets were tested according to International Conference on Harmonization (ICH) Guideline for long-term (12 months at 25 ± 2 °C/60 ± 5% RH), intermediate (6 months at 30 ± 2 °C/65 ± 5% RH), and accelerated (40 ± 2 °C/75 ± 5% RH) stability [12].
Data set [2] in a line: Sample stability of ATB components (bench, freeze-thaw, short-term, long-term). It is filed as physicochemical. As to conditions: in % (unit assumed). How it is done: samples for calibration were prepared. The study and QC samples were prepared on the same day as the UPLC-MS/MS analysis was done.
Calibration curves were prepared the same way as described in section S1.2.2. The linearity of each calibration curve was determined by plotting the peak area ratio of Matr, Maac, Dict, and Frax to I.S. in plasma. […] The lower limit of […] was defined based on a signal-to-noise ratio of 10:1.
S1.2.4 Extraction recovery and matrix effect
The extraction recoveries of Matr, Maac, Dict, and Frax were determined by comparing the relative peak areas obtained from blank plasma spiked with analytes and those obtained from water spiked with the same amounts of analytes. Matrix effect was determined by comparing the peak areas of blank plasma extracts spikes with analytes and I.S. with those of the standard solutions dried and reconstituted with mobile phase. The quality control samples were prepared in plasma.
Bench work (25°C for 4 hours), short-term (-20°C for 7 days), long-term (-80°C for 4 months) and three freeze-thaw cycle stabilities were determined.

Assay in data set [3]: as above
The class given is physicochemical. To be noted: in % (unit assumed). The source holds these as a separate data set.

A short description of data set [4]: Single-dose oral pharmacokinetic study of ATB tablets in healthy human subjects (plasma and saliva, non-compartmental analysis). It is filed as in vivo. As to conditions: after 2400 mg ATB oral administration; LLOQ of Dict […]. How it is done: In addition, in vivo correlation between plasma and saliva concentrations was determined as the secondary outcome.
The ratio of drug concentration in plasma and saliva were calculated using Equations (1) and (2). (1) RCmax=Cmax saliva/Cmax plasma (2) RAUC=AUC0–24 saliva/AUC0–24 plasma […]
S2.1. Human Pharmacokinetic Study Design
The study was conducted in two phases. Two self-volunteered subjects participated in the study […]
Participants refrained from consumption of […]
dosing blood and saliva samples were collected. Each participant received single-dose oral […]
saliva sample kit for salivary collection. Plasma samples were then collected by centrifugation of […]
hour post-administration. […]
administration. […] Throughout the […]
collected and saline lock was removed. Participants returned the next day morning for 24-hour […]
Participants fasted 8-12 hours before each

Details of data set [5]: method as in PMID 33896325. To be noted: cited from earlier work.
Data set [6] relates to OCT1, OCT2 and OCT3. Also noted: method as in PMID 33896325. To be noted: read-out: Km of uptake by OCT1, OCT2 and OCT3; cited from earlier work.

As to `Oc1ccc2c(c1)OC[C@H]1c3cc4c(cc3O[C@@H]21)OCO4` [Maac, maackiain], in data set [1], the “remaining percentage in ATB tablets, Long term 3 months” value came out at 81.1 ± 5.3%; the “remaining percentage in ATB tablets, Long term 6 months” value came to 101.6±0.2%; the “remaining percentage in ATB tablets, Long term 12 months” value is 89.1 ± 4.2%. Moreover, in data set [2] (HQC concentration level), the “Stability, 3 cycles freeze-thaw” value was 114.7 ± 2.8; the “Stability, Bench work (4 hrs, 25 oC)” value came to 108.7 ± 8.1; the “Stability, Short-term (7 days, -20 oC)” value stood at 91.2 ± 8.0. The “Stability, 3 cycles freeze-thaw” value in data set [2] (LOQ concentration level) was determined as 113.3 ± 6.4. Besides, in data set [2] (MQC concentration level), the “Stability, 3 cycles freeze-thaw” value is 114.6 ± 3.2 and the “Stability, Bench work (4 hrs, 25 oC)” value stood at 109.1 ± 5.9. Besides, the “Stability, Long-term (6 months, -80 oC)” value in data set [3] (HQC concentration level) was 92.3 ± 5.7. Moreover, in data set [3] (LOQ concentration level), the “Stability, Bench work (4 hrs, 25 oC)” value amounted to 93.8 ± 11.6; the “Stability, Long-term (6 months, -80 oC)” value is on record as 87.0 ± 5.1; the “Stability, Short-term (7 days, -20 oC)” value worked out at 99.6 ± 1.4. Besides, in data set [3] (MQC concentration level), the “Stability, Long-term (6 months, -80 oC)” value is on record as 85.5 ± 0.4 and the “Stability, Short-term (7 days, -20 oC)” value is given as 89.1 ± 11.0. The “detection in plasma and saliva samples” value in data set [4] was “detected in 30 min plasma sample of only one participant”.

Regarding `CC1=C2C(=O)O[C@@H](c3ccoc3)[C@]2(C)CCC1` [Frax, fraxinellone], in data set [1], the “remaining percentage in ATB tablets, Long term 3 months” value is given as 92.4 ± 6.4%; the “remaining percentage in ATB tablets, Long term 6 months” value is given as 81.2 ± 10.1%; the “remaining percentage in ATB tablets, Long term 12 months” value is recorded as 93.8 ± 1.0%. Besides, in data set [1] (30 ± 2 °C/65 ± 5% RH), the “remaining percentage in ATB tablets, Intermediate 3 months” value was found to be 112.5 ± 7.2% and the “remaining percentage in ATB tablets, Intermediate 6 months” value is 113.1 ± 7.2%. For the same compound, in data set [1] (40 ± 2 °C/75 ± 5% RH), the “remaining percentage in ATB tablets, Accelerated term 3 months” value stood at 84.3 ± 13.2% and the “remaining percentage in ATB tablets, Accelerated term 6 months” value is 115.8 ± 1.5%. Moreover, in data set [2] (HQC concentration level), the “Stability, 3 cycles freeze-thaw” value amounted to 98.9 ± 2.2; the “Stability, Bench work (4 hrs, 25 oC)” value turned out to be 89.1 ± 9.9; the “Stability, Short-term (7 days, -20 oC)” value came to 99.1 ± 8.0. Further, the “Stability, 3 cycles freeze-thaw” value in data set [2] (LOQ concentration level) amounted to 105.7 ± 3.2. Also, in data set [2] (MQC concentration level), the “Stability, 3 cycles freeze-thaw” value turned out to be 104.0 ± 1.3 and the “Stability, Bench work (4 hrs, 25 oC)” value turned out to be 90.5 ± 8.0. Also, the “Stability, Long-term (6 months, -80 oC)” value in data set [3] (HQC concentration level) is listed as 94.8 ± 0.4. Also, in data set [3] (LOQ concentration level), the “Stability, Bench work (4 hrs, 25 oC)” value is recorded as 108.5 ± 5.0; the “Stability, Long-term (6 months, -80 oC)” value is recorded as 85.7 ± 3.6; the “Stability, Short-term (7 days, -20 oC)” value is 89.6 ± 0.5. In data set [3] (MQC concentration level), the “Stability, Long-term (6 months, -80 oC)” value is on record as 90.1 ± 5.6 and the “Stability, Short-term (7 days, -20 oC)” value amounted to 96.6 ± 5.8. For the same compound, the “detection in plasma and saliva samples” value in data set [4] is given as “not detected in any study sample”.

As for `CN(C)C(=N)N=C(N)N` [metformin], the saliva/plasma concentration ratio in data set [5] is listed as 0.29–0.39. Further, in data set [6], the Km was 285 to 3170 µM.
